Data taken from BindingDB's records for patent US20250115598 (Anaxis Pharma, 2025).

Experiments:
Test in all cases: In Vitro Assay
[1] = biological target: T1, Receptor-interacting serine/threonine-protein kinase 1 (Homo sapiens, UniProt Q13546)
T1 sequence (Q13546 whole entry): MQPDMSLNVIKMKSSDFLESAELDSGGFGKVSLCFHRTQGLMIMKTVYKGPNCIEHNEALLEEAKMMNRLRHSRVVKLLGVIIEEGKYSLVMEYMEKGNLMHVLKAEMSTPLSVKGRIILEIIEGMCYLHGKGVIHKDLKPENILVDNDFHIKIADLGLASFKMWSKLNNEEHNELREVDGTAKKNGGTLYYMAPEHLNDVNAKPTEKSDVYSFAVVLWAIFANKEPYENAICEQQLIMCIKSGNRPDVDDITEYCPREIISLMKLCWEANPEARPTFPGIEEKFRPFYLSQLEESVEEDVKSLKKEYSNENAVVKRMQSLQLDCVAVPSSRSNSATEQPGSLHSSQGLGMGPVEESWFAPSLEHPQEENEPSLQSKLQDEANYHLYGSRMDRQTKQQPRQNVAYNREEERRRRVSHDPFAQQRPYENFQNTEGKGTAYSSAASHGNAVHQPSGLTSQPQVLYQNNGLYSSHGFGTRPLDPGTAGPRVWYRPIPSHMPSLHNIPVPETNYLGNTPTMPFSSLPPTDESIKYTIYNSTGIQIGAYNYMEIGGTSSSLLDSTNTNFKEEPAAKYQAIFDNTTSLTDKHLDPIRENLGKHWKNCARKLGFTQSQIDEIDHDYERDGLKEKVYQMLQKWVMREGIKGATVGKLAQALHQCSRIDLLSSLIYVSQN
Procedure: (§1) Binding affinity of the test compounds for human MLKL (full length), mouse MLKL (full length), human RIPK1 and human RIPK3 was determined using the KINOMEscan™ technology developed by DiscoverX (USA; http://www.discoverx.com). The assay was conducted according to manufacturer instructions.

[2] = biological target: Receptor-interacting serine/threonine-protein kinase 3 (Homo sapiens, UniProt Q9Y572)
Procedure: as §1

[3] = biological target: T2, Mixed lineage kinase domain-like protein (Homo sapiens, UniProt Q8NB16)
T2 sequence (Q8NB16 whole entry): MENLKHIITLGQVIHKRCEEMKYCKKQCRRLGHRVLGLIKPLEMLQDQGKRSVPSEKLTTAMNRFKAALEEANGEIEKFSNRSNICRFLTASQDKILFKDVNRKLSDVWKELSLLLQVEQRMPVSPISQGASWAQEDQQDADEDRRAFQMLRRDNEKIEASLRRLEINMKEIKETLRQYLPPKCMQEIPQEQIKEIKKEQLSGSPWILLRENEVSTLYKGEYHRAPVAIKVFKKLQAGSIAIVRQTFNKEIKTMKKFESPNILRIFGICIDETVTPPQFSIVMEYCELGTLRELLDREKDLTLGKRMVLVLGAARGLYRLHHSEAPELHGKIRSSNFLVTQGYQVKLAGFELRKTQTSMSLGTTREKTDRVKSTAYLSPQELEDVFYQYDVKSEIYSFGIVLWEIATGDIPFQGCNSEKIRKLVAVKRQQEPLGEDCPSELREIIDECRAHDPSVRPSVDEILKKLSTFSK
Procedure: as §1

Chain of Receptor-interacting serine/threonine-protein kinase 3 (Q9Y572 whole entry): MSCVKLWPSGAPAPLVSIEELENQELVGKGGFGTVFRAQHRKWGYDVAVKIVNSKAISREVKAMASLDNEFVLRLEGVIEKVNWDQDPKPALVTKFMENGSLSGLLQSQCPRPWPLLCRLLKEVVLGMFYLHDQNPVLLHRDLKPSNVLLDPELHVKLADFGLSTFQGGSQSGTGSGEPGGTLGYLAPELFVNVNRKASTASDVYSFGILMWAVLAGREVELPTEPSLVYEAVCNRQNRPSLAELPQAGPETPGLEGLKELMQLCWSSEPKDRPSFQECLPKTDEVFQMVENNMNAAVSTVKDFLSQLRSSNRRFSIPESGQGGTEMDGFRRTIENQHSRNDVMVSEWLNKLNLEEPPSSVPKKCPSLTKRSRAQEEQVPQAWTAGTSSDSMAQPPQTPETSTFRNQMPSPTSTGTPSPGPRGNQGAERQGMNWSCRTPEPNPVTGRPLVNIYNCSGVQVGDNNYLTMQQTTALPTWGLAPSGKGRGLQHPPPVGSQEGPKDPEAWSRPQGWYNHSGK

SMILES	Kd [1]	Kd [2]	Kd [3]
Nc1ncc(-c2cnn(C3CCOCC3)c2)c2occ(-c3ccc(NS(=O)(=O)C(F)F)c(OCc4ccc(F)cc4)c3)c12 [US20250115598, Compound 5]	> 2.5 µM	> 2.5 µM	
Cn1nc(-c2ccc(NS(=O)(=O)C(F)F)c(OCc3ccc(F)cc3)c2)c2c(N)ncc(-c3ccncc3)c21 [US20250115598, Compound 14]	> 2.5 µM	> 2.5 µM	
C[C@H](Oc1cc(-c2nn(C)c3c(C4=CCCN(C)C4)cnc(N)c23)ccc1NS(=O)(=O)C(F)F)c1ccc(F)cc1 [US20250115598, Compound 55]	> 2.5 µM	> 2.5 µM	

Further lines, results first:

Kd [1]	Kd [2]	Kd [3]	SMILES
		< 0.05 µM	C[C@H](Oc1cc(-c2nn(C)c3c(-c4cnn(CCC(F)(F)F)c4)cnc(N)c23)ccc1NS(=O)(=O)C(F)F)c1ccc(F)cc1 [US20250115598, Compound 113]
> 2.5 µM	> 2.5 µM		COc1ccc([C@H](C)Oc2cc(-c3nn(C)c4c(-c5cnn(C6CCOCC6)c5)cnc(N)c34)ccc2NS(=O)(=O)C(F)F)cc1 [US20250115598, Compound 129]
> 2.5 µM	> 2.5 µM		C[C@H](Oc1cc(-c2nn(C)c3c(-c4cnn(C5CCOCC5)c4)cnc(N)c23)ccc1NS(=O)(=O)C(F)F)c1ccc(F)cc1 [US20250115598, Compound 135]
> 2.5 µM	> 2.5 µM		C[C@H](Oc1cc(-c2nn(C)c3c(-c4cnn(C5CCN(C)C(C(F)F)C5)c4)cnc(N)c23)ccc1NS(=O)(=O)C(F)F)c1ccc(F)cc1 (stereo partly drawn) [US20250115598, Compound 158]
